# pIC50: −log10 of the molar value. Where “and” joins values, the source holds several entries; their conditions need not be identical. Identical values can stand only once. Like-named read-outs stand apart in the source and are kept apart here.
# Columns and labels:
# [1] = system: L. amazonensis promastigotes; assay: Antiproliferation assay: L. amazonensis promastigotes (24 h), resazurin; format: cell-based, Leishmania amazonensis (IFLA/BR/1967/PH8); conditions: Leishmania amazonensis, after 24 h, read-out: IC50 (CI95)
# Protocol: (§1) Leishmania amazonensis promastigotes (IFLA/BR/1967/PH8) for the 24 h exposure test were cultivated in RPMI 1640, supplemented with 20% v/v heat inactivated fetal bovine serum (FBS) and incubated at 26°C until near the end of the log growth phase. Leishmania amazonensis (IFLA/BR/1967/PH8) and L. infantum (MCAN/BR/2008/1112) promastigotes used in the 72 h exposure test were cultivated in Warren’s medium (containing brain heart infusion- BHI plus hemin and folic acid), supplemented with 10% FBS, 0.1% of the antibiotics: 100 UI/mL penicillin G and 0.1 mg/mL streptomycin. Leishmania amazonensis (IFLA/BR/1967/PH8) transfected with the red fluorescent protein (RFP) gene was cultured in M199 medium (containing 0.1 mmol/L adenine, 40 mmol/L hepes, 0.0005% hemin and 0.0002% biotin), supplemented with 10% FBS, and 0.1% of the antibiotic. Parasites were maintained at 25°C in a BOD incubator.
# Extracts and fractions were tested against L. amazonensis (IFLA/BR/1967/PH8) promastigote cells in a 96-well plate at a concentration of 10^6 cells/well. Each sample was solubilized in DMSO (<1%) since it was not soluble directly in the medium. Extracts were tested at 100 μg/mL and 50 μg/mL. […] Plates were read at 570 nm and 595 nm in a microplate reader (BiochromAsys UVM 340) after cell lysis with sodium dodecyl sulfate (SDS). Viability was calculated based on the equations described by Kulshrestha.
# [2] = system: L. infantum promastigotes; assay: Antiproliferation assay: L. infantum promastigotes (72 h), MTT; format: cell-based, Leishmania infantum (MCAN/BR/2008/1112); conditions: 72 h exposure; for IC50: Leishmania infantum, 72 h
# Protocol: as §1
# (§2) Extracts and isolated compounds were tested against L. amazonensis promastigotes (IFLA/BR/1967/PH8 strain - 2x10^5 cells/well) and L. infantum promastigotes (MCAN/BR/2008/1112 strain - 3x10^5 cells/well). The samples were solubilized in DMSO (<1%), serially diluted (100 μg/mL to 1.56 μg/mL) and tested in a 96-well plate to obtain a dose-response curve. Miltefosine and DMSO were used as positive and negative controls, respectively. After 72 h, 10 μL of 3-(4,5-dimethylthiazol-2-yl)-2,5-diphenyl tetrazolium bromide (5 mg/mL—MTT, Sigma-Aldrich) solution was added to each well and the plate returned to the incubator for an additional 4 h. To halt the reaction, 100 μL acidified isopropanol was added to each well. Plates were read at 570 nm in a microplate reader (Multiskan MS, LabSystems Oy, Helsinki, Finland).
# [3] = system: L. amazonensis amastigotes; assay: L. amazonensis amastigotes assay (RFP parasites in peritoneal macrophages); format: cell-based, Leishmania amazonensis (IFLA/BR/1967/PH8); conditions: for IC50: Leishmania amazonensis, Peritoneal macrophage, intracellular; for IC50 / activity against L. amazonensis amastigotes (in words): 72 h
# Protocol: Peritoneal macrophages obtained from BALB/c mice were transferred to a 24-well plate (6x10^5 cells/well) in RPMI 1640 medium supplemented with 10% inactivated FBS and 20 mM L-glutamine, pH 7.2. The plate was incubated at 37°C in 5% CO2 for 24 h. After this period, macrophages were infected with L. amazonensis (IFLA/BR/1967/PH8) transfected with RFP in the stationary growth phase using a ratio 1:10 (macrophages/parasites) at 33°C for 4 h. The non-phagocytosed parasites were subsequently removed by extensive PBS wash, and samples added at non-toxic concentrations, in accordance with the cytotoxicity tests (100 μg/mL to 1.56 μg/mL) to determine the IC50 for the intracellular parasite. After 72 h, the supernatant was removed from the wells and 200 μL of deionized water added to each well to lyse the cell membrane. After lysis, the resulting supernatants were transferred to a black 96-well plate. The plate was read in a fluorescence spectrophotometer (FLx800, BioTek Instruments, Inc., Winooski, VT, USA) with 540/600 nm of excitation/emission. Wells containing macrophages infected with L. amazonensis (RFP) […] only were used as negative controls.
# Cytotoxicity assay (MTT) = format: cell-based, BALB/c mice; conditions: female, BALB/c, mouse, 72 h exposure
# Protocol: Female BALB/c mice pre-inoculated with 3% thioglycollate medium were used to obtain macrophages from the peritoneal cavity. Peritoneal exudate was collected 72 h post-inoculation using cold Hank´s Balanced Salt Solution and the assay performed as previously reported. Briefly, peritoneal macrophages in RPMI 1640 medium were transferred to a 96-well plate (2x10^5 cells/well) and incubated at 37°C in 5% CO2 for 24 h to allow adhesion. Samples were serially diluted (100 μg/mL to 0.78 μg/mL), added to the plate with the cells and incubated under the same conditions for 72 h. MTT (10 μL/well) was subsequently added and the plates re-incubated for a further 2 h. To halt the reaction, 100 μL of acidified isopropanol was added to each well. The plate was then read at 570 nm in a microplate reader (Multiskan MS, LabSystems Oy, Helsinki, Finland).
# [4] = system: L. amazonensis promastigotes; assay: Antiproliferation assay: L. amazonensis promastigotes (72 h), MTT; format: cell-based, Leishmania amazonensis (IFLA/BR/1967/PH8); conditions: 72 h exposure; for IC50: Leishmania amazonensis
# Protocol: as §1, §2
# [5] = system: L. amazonensis promastigotes; assay: Mitochondrial membrane potential (MitoTracker); format: cell-based, Leishmania amazonensis; conditions: 24 h; 2 at 33.8 μM, 3 at 11.4 μM; FCCP 5.0 μM for 10 min
# Protocol: After 24 h of incubation at 25°C, the parasite concentration was adjusted to 5x10^6 cells/mL and stained with 500 nM MitoTracker (Invitrogen, Eugene, OR, USA) in the dark for 40 min at 37°C. After washing twice with PBS, samples were transferred in triplicate to a black 96-well plate, and fluorescence measured in a spectrofluorometer (FLx800, BioTek Instruments, Inc., Winooski, VT, USA) at 540/600 nm excitation/emission. […] Louis, MO, USA) for 10 min were used to obtain maximal mitochondrial depolarization (positive control).
# [6] = system: L. amazonensis promastigotes; assay: Reactive oxygen species (ROS) detection (H2DCFDA); format: cell-based, Leishmania amazonensis
# Protocol: Fluorescence intensity was detected using a fluorimetric microplate reader (FLx800, BioTek Instruments, Inc., Winooski, VT, USA), at 485/528 nm excitation/emission. Promastigotes incubated with miltefosine (44.2 μM) were used as a positive control.
# [7] = system: L. amazonensis promastigotes; assay: Cell membrane integrity (propidium iodide); format: cell-based, Leishmania amazonensis; conditions: 24 h; 2 at 33.8 μM, 3 at 11.4 μM
# Protocol: Plates were incubated with propidium iodide (PI) (1.0 μg/mL—Sigma-Aldrich, USA, St. Louis, MO, USA) for 15 min in the dark at RT. Fluorescence was measured using a spectrofluorometer (FLx800, BioTek Instruments, Inc., Winooski, VT, USA) with 540/600 nm excitation/emission. Parasites heated at 65 °C were used as the positive control.
# [8] = system: L. amazonensis promastigotes; assay: Neutral lipid quantification (Nile Red); format: cell-based, Leishmania amazonensis; conditions: 24 h; 2 at 33.8 μM, 3 at 11.4 μM
# Protocol: After 24 h of exposure, the parasites (1x10^7 cells/well) were stained with 10 μg/mL Nile Red (Sigma-Aldrich, St. Louis, MO, USA) in the dark for 20 min at 25°C. Fluorescence intensity was analysed in a spectrofluorometer (BioTek Instruments, Inc., Winooski, VT, USA) using 485/528 nm excitation/emission.
# L. infantum amastigotes = L. infantum amastigotes assay (Giemsa, infection index); format: cell-based, Leishmania infantum; conditions: Leishmania infantum; intracellular, 72 h
# Protocol: Peritoneal macrophages (6 x 10^5 cells) were plated on round glass coverslips within 24-well plates in RPMI 1640 medium supplemented with FBS and 20 mM L-glutamine, pH 7.2, and incubated for 24 h at 37°C in 5% CO2. Stationary-phase promastigotes (6 x 10^6 cells, at a ratio of 10 parasites per macrophage) were then added to the wells, and cultures incubated for 24 h at 37°C in 5% CO2. Non-internalized parasites were removed by extensive PBS solution washing and infected macrophages subsequently treated with nontoxic concentrations of: compound 3 (6.25 μg/mL to 0.18 μg/mL) or miltefosine (10.0 μg/mL to 0.6 μg/mL, positive control) for 72 h at 37°C in 5% CO2. After compound exposure, cells were fixed with absolute ethanol and stained with Giemsa. A total of 200 macrophages were counted under a light microscope. The infection index was determined by the […] percentage of infected macrophages multiplied by the mean number of amastigotes per macrophage out of 200 macrophages.
# [9] = system: L. amazonensis promastigotes; conditions: cited from earlier work
# [10] = system: L. amazonensis axenic amastigotes; parameters: method as in PMID 18849135; conditions: cited from earlier work
Structure (SMILES),IC50 [2],IC50 [3],CC50 at 72 h (Cytotoxicity assay (MTT); murine peritoneal macrophages),IC50 [4],activity against L. amazonensis amastigotes (in words) [3],also measured
"C[C@@H]1[C@H](O)[C@@H](C)/C=C/C=C/C=C/C=C/C=C/C=C/C=C/[C@H](O[C@@H]2O[C@H](C)[C@@H](O)[C@H](N)[C@@H]2O)C[C@@H]2O[C@](O)(C[C@@H](O)C[C@@H](O)[C@H](O)CC[C@@H](O)C[C@@H](O)CC(=O)O[C@H]1C)C[C@H](O)[C@H]2C(=O)O [Amphotericin B, reference compound]",–,–,–,–,–,IC50 [1]: < 7.8 µg/mL
"COc1ccc2c(c1)OC1c3ccc4c(c3OCC21)C=CC(C)(C)O4 (centres unmarked) [Compound 1, hemileiocarpin]",20.8 µg/mL and 61.9 µM,10.6 µg/mL and 31.6 µM,> 100 µg/mL and > 297 µM,–,–,–
"CC1(C)C=Cc2c(ccc3c2OCC2c4cc5c(cc4OC32)OCO5)O1 (centres unmarked) [Compound 2, leiocarpin]",15.5 µg/mL and 44.3 µM,7.1 µg/mL and 20.4 µM,39 µg/mL and 116 µM,11.4 µg/mL and 33.8 µM,–,"SI (Selectivity Index) ([3]; CC50 macrophages / IC50 L. amazonensis amastigotes): 5.7; reduction in mitochondrial membrane potential (ΔΨm) [5]: 37.6%; ROS level ([6]; 24 h, 2 at 33.8 μM, 3 at 11.4 μM): no alteration in the ROS level; plasma membrane integrity (PI-positive parasites) [7]: significant increase in the percentage of PI-positive parasites; increase in neutral lipid levels in relation to the untreated control [8]: 86.9%"
"CCCCCCCCCCCCCC1=C(O)C(=O)C=C(O)C1=O [Compound 4, rapanone]",7.2 µg/mL and 24.5 µM,> 3.2 µg/mL and > 10.6 µM,2.9 µg/mL and 9.8 µM,50.4 µg/mL and 169 µM,inactive,activity against L. amazonensis promastigotes (in words) [4]: inactivity; Promastigotes IC50 L. infantum [2]: 7.17 ± 0.3 µg/mL
"CCCCCCCCCCCC1=C(O)C(=O)C=C(O)C1=O [Compound 5, embelin]",10.7 µg/mL and 33.2 µM,> 3.2 µg/mL and > 9.7 µM,–,12.5 µg/mL and 38.9 µM,inactive,CC50 at 72 h (Cytotoxicity assay (MTT); read-out: Cytotoxicity CC50 Murine macrophages): 0.9 µg/mL and 2.6 µM
"CCCCCCCCCCCCCCCC1=C(O)C(=O)C=C(O)C1=O [Compound 6, suberonone]",37.2 µg/mL and 106 µM,> 3.2 µg/mL and > 8.9 µM,4.2 µg/mL and 11.7 µM,51.9 µg/mL and 149 µM,inactive,activity against L. amazonensis promastigotes (in words) [4]: not considered active; activity against L. infantum promastigotes (in words) [2]: not considered active
"N#CC(C#N)=NNc1ccc(OC(F)(F)F)cc1 [FCCP, carbonyl cyanide 4-(trifluoro-methoxyl)phenylhydrazone, reference compound]",–,–,–,–,–,reduction in mitochondrial membrane potential (ΔΨm) [5]: 51.6%
"CCCCCCCCCCCCCCCCOP(=O)([O-])OCC[N+](C)(C)C [Miltefosine, reference compound]",2.6 µg/mL and 6.5 µM,5.2 µg/mL and 12.7 µM,–,9 µg/mL and 22.1 µM,–,"SI (Selectivity Index) [3]: 10.4; pIC50 (L. infantum amastigotes): 5.43; increase in ROS production ([6]; miltefosine 44.2 μM, positive control): 162.3%"
CCC(C)C(=O)c1c(O)c(CC=C(C)C)c(O)c2c(-c3ccccc3)cc(=O)oc12 (centres unmarked) [mammea A/BB],–,–,–,–,–,IC50 promastigotes [9]: 3 µg/mL; IC50 axenic amastigotes [10]: 0.88 µg/mL

# Reference: paper PMC7647111, “Antileishmanial compounds from Connarus suberosus: Metabolomics, isolation and mechanism of action” (PLoS ONE, 2020)
